Reference: patent US9422254B2, “Methoxyacrylate-based fungicide and methods for preparing and using the same” (priority 2008, dated 2016)
Where “and” joins values, the source holds several entries; their conditions need not be identical. Equal entries are not always repeated.

Key:
Helminthosporum maydis = assay: organism not typed; format: cell-based
melon powdery mildew = assay: Field efficacy trial of emulsifier concentrate 1, melon powdery mildew; format: in vivo
Description: (§1) To a beaker (1000 mL), 50 g (100% basis) of the compound of Formula (I), 150 g of DMF, and 50 g of acetone were added and stirred for dissolution. To the solution, 25 g of pesticide emulsifier No. 500 and 50 g of Tween 80, 20 g of epoxidized soybean oil, and […] of toluene were added. Thus, the emulsifier concentrate 1 having 5 wt. % of the compound of Formula (I) was obtained and further packed.
(§2) On the basis of indoor activity evaluation, field efficacy trials of the compound of Formula (I) on cucumber downy mildew, cucumber powdery mildew, and melon powdery mildew were conducted.

Ames test = format: cell-based
Description: (§3) The toxicological indexes of the compound were tested following the standard GB15670-1995 “Toxicological test methods of pesticides for registration” by Tongji Medical College, Huazhong University of Science and Technology.

[1] = test system: Rice sheath blight (strain WK-1); assay: In vivo micro-screening assay
Description: (§5) To further study the fungicidal spectrum of the compound of Formula (I), indoor in vivo micro-screening assay were carried out on cucumber gray mold, cucumber scab, cucumber sclerotinia rot, cucumber brown spot, pepper phytophthora blight, and rice sheath blight.
Cucumber scab strain: HX; cucumber brown spot strain: SDHGHB060509; cucumber sclerotinia rot strain: HGJH; pepper phytophthora blight strain: NSGP; and rice sheath blight strain: WK-1.
(§6) Medicament to be tested and medicament of control groups were prepared as needed in a sunny morning. Cucumber gray mold, cucumber scab, cucumber brown spot, cucumber sclerotinia rot, and rice sheath blight were medicated by spray, and after air dry, pathogens of cucumber scab and of cucumber brown spot were inoculated through spraying spore suspension respectively, pathogens of cucumber gray mold, of cucumber sclerotinia rot, and of rice sheath blight were inoculated through lawn foliage. Pepper phytophthora blight was medicated and inoculated by root-irrigation. Subsequently, all seedlings were cultured in wet environment.
(§7) After the disease of control groups were serious, spot area, disease index, and the diseased seedling rate were investigated to calculate the efficacy. Cucumber scab, cucumber brown spot, and pepper phytophthora blight were investigated by grading method. The spot extension area of cucumber gray mold and of rice sheath blight was investigated. The diseased seedling rate of cucumber sclerotinia rot was investigated. Disease index=Σ(amount of infected diseased leaves in a grade×relative value of the grade)×100/(total amount of leaves×9); Diseased seedling rate (%)=(total amount of seedlings−amount of diseased seedlings)/total amount of seedlings×100% Prevention and treatment effect (%)=(disease of control group−disease of experiment group)/disease of control group×100%

Diaporthe medusae = assay: microbe, parasite or virus in culture; format: cell-based
Alternaria solani = assay: microbe, parasite or virus in culture; format: cell-based; settings: read-out: Inhibition rate (%)
rabbit's skin = assay: Skin stimulation test; format: in vivo
Description: as §3

[2] = test system: Cucumber gray mold (F-109); assay: In vivo micro-screening assay
Description: as §5, §6, §7

cucumber downy mildew = assay: Field efficacy trial of emulsifier concentrate 1, cucumber downy mildew; format: in vivo
Description: as §1, §2

Gibberella zea = assay: organism not typed; format: cell-based; settings: read-out: Inhibition rate (%)
Botrytis cinerea = assay: microbe, parasite or virus in culture; format: cell-based; settings: read-out: Inhibition rate (%)
Bipolaris sorokiniana = assay: microbe, parasite or virus in culture; format: cell-based; settings: read-out: Inhibition rate (%)
mice spermatogonial = assay: Chromosome aberration test of mice spermatogonial; format: in vivo
Description: as §3

[3] = Acute toxicity test on zebra fish; settings: in vivo
Description: (§4) After acute toxicity and Ames test had been finished, environmental toxicity test was conducted following “Guideline for Environmental Safety Evaluation of Chemical Pesticides” of Agriculture Ministry of China by Shenyang Chemical Research Institute/Supervision and Test Center for Pesticide Safety Evaluation and Quality Control.

bee = assay: Acute contact toxicity test on bee; format: in vivo
Description: as §4

Cercospora arachidicola = assay: microbe, parasite or virus in culture; format: cell-based; settings: Mycosphaerella arachidis, read-out: Inhibition rate (%)
[4] = test system: Pepper phytophthora blight (strain NSGP); assay: In vivo micro-screening assay; parameters: species or system Phytophthora capsici; settings: root-irrigation
Text: 3. In Vivo Micro-Screening Assay

quail = assay: Acute oral toxicity test on quail; format: in vivo
Description: as §4

Fusarium oxysporum = assay: microbe, parasite or virus in culture; format: cell-based; settings: read-out: Inhibition rate (%)
[5] = 12.5 mg/L, 7th day after first administration
[6] = 12.5 mg/L, 7th day after second administration
[7] = 12.5 mg/L, 14th day after second administration
[8] = 25 mg/L, 7th day after first administration
[9] = 25 mg/L, 7th day after second administration
[10] = 25 mg/L, 14th day after second administration
[11] = 50 mg/L, 7th day after first administration
[12] = 50 mg/L, 7th day after second administration
[13] = 50 mg/L, 14th day after second administration
[14] = 100 mg/L, 7th day after first administration
[15] = 100 mg/L, 7th day after second administration
[16] = 100 mg/L, 14th day after second administration
[17] = 25 mg/L, 5th day after third administration, Average
[18] = 25 mg/L, 5th day after third administration, No. 1-3
[19] = 25 mg/L, 9th day after third administration, Average
[20] = 25 mg/L, 9th day after third administration, No. 1-3
[21] = 25 mg/L, 12th day after second administration, Average
[22] = 25 mg/L, 12th day after second administration, No. 1-3
[23] = 50 mg/L, 5th day after third administration, Average
[24] = 50 mg/L, 5th day after third administration, No. 1-3
[25] = 50 mg/L, 9th day after third administration, Average
[26] = 50 mg/L, 9th day after third administration, No. 1-3
[27] = 50 mg/L, 12th day after second administration, Average
[28] = 50 mg/L, 12th day after second administration, No. 1-3
[29] = 100 mg/L, 5th day after third administration, Average
[30] = 100 mg/L, 5th day after third administration, No. 1-3
[31] = 100 mg/L, 9th day after third administration, Average
[32] = 100 mg/L, 9th day after third administration, No. 1-3
[33] = 100 mg/L, 12th day after second administration, Average

SMILES: CO/C=C(/C(=O)OC)c1ccccc1CSc1nc2cc(OC)ccc2s1 [Compound of Formula (I), (E)-methyl 3-methoxy-2-(2-((5-methoxy-benzothiazol-2-ylthio)methyl)phenyl)acrylate]
- in vitro effect (Helminthosporum maydis): particularly effective
- inhibition at 0.3 µg/mL (Helminthosporum maydis; 0.3 mg/L, read-out: Inhibition rate (%)): 86.1%
- inhibition at 3 µg/mL (Helminthosporum maydis; 3 mg/L, read-out: Inhibition rate (%)): 100%
- inhibition at 30 µg/mL (Helminthosporum maydis; 30 mg/L, read-out: Inhibition rate (%)): 100%
- Disease index (melon powdery mildew; [5]): 8.80
- Efficacy (%) (melon powdery mildew; [5]): 27.16%
- Disease index (melon powdery mildew; [6]): 13.44
- Efficacy (%) (melon powdery mildew; [6]): 61.65%
- Disease index (melon powdery mildew; [7]): 40.33
- Efficacy (%) (melon powdery mildew; [7]): 29.55%
- Disease index (melon powdery mildew; [8]): 7.11
- Efficacy (%) (melon powdery mildew; [8]): 34.38%
- Disease index (melon powdery mildew; [9]): 13.63
- Efficacy (%) (melon powdery mildew; [9]): 67.15%
- Disease index (melon powdery mildew; [10]): 31.50
- Efficacy (%) (melon powdery mildew; [10]): 47.00%
- Disease index (melon powdery mildew; [11]): 7.92
- Efficacy (%) (melon powdery mildew; [11]): 35.77%
- Disease index (melon powdery mildew; [12]): 10.88
- Efficacy (%) (melon powdery mildew; [12]): 75.54%
- Disease index (melon powdery mildew; [13]): 30.42
- Efficacy (%) (melon powdery mildew; [13]): 54.57%
- Disease index (melon powdery mildew; [14]): 6.29
- Efficacy (%) (melon powdery mildew; [14]): 39.15%
- Disease index (melon powdery mildew; [15]): 4.52
- Efficacy (%) (melon powdery mildew; [15]): 86.22%
- Disease index (melon powdery mildew; [16]): 19.45
- Efficacy (%) (melon powdery mildew; [16]): 63.47%
- Ames test (Ames test): Negative
- prevention and treatment effect [1]: good prevention and treatment effect
- Disease index ([1]; 100 mg/L): 59.96
- Efficacy (%) ([1]; 100 mg/L): 61.67%
- Disease index ([1]; 500 mg/L): 46.87
- Efficacy (%) ([1]; 500 mg/L): 70.04%
- in vitro effect (Diaporthe medusae): particularly effective
- inhibition at 0.3 µg/mL (Diaporthe medusae; Diaporthe, 0.3 mg/L, read-out: Inhibition rate (%)): 55.3%
- inhibition at 3 µg/mL (Diaporthe medusae; Diaporthe, 3 mg/L, read-out: Inhibition rate (%)): 80.1%
- inhibition at 30 µg/mL (Diaporthe medusae; Diaporthe, 30 mg/L, read-out: Inhibition rate (%)): 87.2%
- inhibition at 0.3 µg/mL (Alternaria solani; 0.3 mg/L): 32.4%
- inhibition at 3 µg/mL (Alternaria solani; 3 mg/L): 39.2%
- inhibition at 30 µg/mL (Alternaria solani; 30 mg/L): 43.9%
- Skin stimulation (rabbit's skin): No stimulation on rabbit's skin
- Efficacy (%) ([2]; 100 mg/L): 92.19%
- Spot area (mm^2) ([2]; 100 mg/L): 8.03 mm^2
- Efficacy (%) ([2]; 500 mg/L): 96.43%
- Spot area (mm^2) ([2]; 500 mg/L): 3.67 mm^2
- prevention and treatment effect ([2]; cucumber gray mold, strains not distinguished): good prevention and treatment effect
- Disease index (cucumber downy mildew; [17]): 4.75
- Efficacy (%) (cucumber downy mildew; [17]): 58.99%
- Disease index (cucumber downy mildew; [18]): 4.86 and 4.51
- Efficacy (%) (cucumber downy mildew; [18]): 57.99% and 60.99%
- Disease index (cucumber downy mildew; [19]): 11.50
- Efficacy (%) (cucumber downy mildew; [19]): 68.89%
- Disease index (cucumber downy mildew; [20]): 12.04 and 10.42
- Efficacy (%) (cucumber downy mildew; [20]): 67.43% and 71.82%
- Disease index (cucumber downy mildew; [21]): 1.85
- Efficacy (%) (cucumber downy mildew; [21]): 69.24%
- Disease index (cucumber downy mildew; [22]): 1.74 and 2.08
- Efficacy (%) (cucumber downy mildew; [22]): 71.16% and 65.39%
- Disease index (cucumber downy mildew; [23]): 3.94
- Efficacy (%) (cucumber downy mildew; [23]): 65.99%
- Disease index (cucumber downy mildew; [24]): 3.47 and 4.51 and 3.82
- Efficacy (%) (cucumber downy mildew; [24]): 69.99% and 60.99% and 66.99%
- Disease index (cucumber downy mildew; [25]): 8.72
- Efficacy (%) (cucumber downy mildew; [25]): 76.41%
- Disease index (cucumber downy mildew; [26]): 10.65 and 7.18 and 8.33
- Efficacy (%) (cucumber downy mildew; [26]): 71.19% and 80.58% and 77.45%
- Disease index (cucumber downy mildew; [27]): 1.39
- Efficacy (%) (cucumber downy mildew; [27]): 76.93%
- Disease index (cucumber downy mildew; [28]): 1.04 and 1.74 and 1.39
- Efficacy (%) (cucumber downy mildew; [28]): 82.70% and 71.16% and 76.93%
- Disease index (cucumber downy mildew; [29]): 2.55
- Efficacy (%) (cucumber downy mildew; [29]): 77.99%
- Disease index (cucumber downy mildew; [30]): 2.08 and 2.43 and 3.13
- Efficacy (%) (cucumber downy mildew; [30]): 81.99% and 78.99% and 72.99%
- Disease index (cucumber downy mildew; [31]): 7.10
- Efficacy (%) (cucumber downy mildew; [31]): 80.79%
- Disease index (cucumber downy mildew; [32]): 8.10 and 7.18 and 6.02
- Efficacy (%) (cucumber downy mildew; [32]): 78.08% and 80.58% and 83.72%
- Disease index (cucumber downy mildew; [33]): 1.02
- Efficacy (%) (cucumber downy mildew; [33]): 83.04%
- Efficacy (%) (cucumber downy mildew; 100 mg/L, 12th day after second administration, No. 1-3): 83.71% and 76.93% and 88.46%
- inhibition at 0.3 µg/mL (Gibberella zea): 34.9%
- inhibition at 3 µg/mL (Gibberella zea): 45.9%
- inhibition at 30 µg/mL (Gibberella zea): 54.6%
- inhibition at 0.3 µg/mL (Botrytis cinerea; 0.3 mg/L): 42.3%
- inhibition at 3 µg/mL (Botrytis cinerea; 3 mg/L): 42.7%
- inhibition at 30 µg/mL (Botrytis cinerea; 30 mg/L): 54.9%
- inhibition at 0.3 µg/mL (Bipolaris sorokiniana; 0.3 mg/L): 18.8%
- inhibition at 3 µg/mL (Bipolaris sorokiniana; 3 mg/L): 40.6%
- inhibition at 30 µg/mL (Bipolaris sorokiniana; 30 mg/L): 43.8%
- Chromosome aberration test of mice spermatogonial (mice spermatogonial): Negative
- LC50 at 24 h ([3]; 24 hrs): 0.069 µg/mL
- LC50 at 48 h ([3]; 48 hrs): 0.06 µg/mL
- LC50 at 72 h ([3]; 72 hrs): 0.047 µg/mL
- LC50 at 96 h ([3]; 96 hrs): 0.043 µg/mL
- LC50 (48 hrs) (bee): LC50 (48 hrs) > 100 μg a.i./per bee
- inhibition at 0.3 µg/mL (Cercospora arachidicola; 0.3 mg/L): 30.9%
- inhibition at 3 µg/mL (Cercospora arachidicola; 3 mg/L): 35.7%
- inhibition at 30 µg/mL (Cercospora arachidicola; 30 mg/L): 40.5%
- Efficacy (%) ([4]; 100 mg/L): 26.22%
- Spot area (mm^2) ([4]; 100 mg/L): 25.33 mm^2
- Efficacy (%) ([4]; 500 mg/L): 30.09%
- Spot area (mm^2) ([4]; 500 mg/L): 24 mm^2
- LC50 (quail): LC50 > 1100 mg/kg.bw
- inhibition at 0.3 µg/mL (Fusarium oxysporum; 0.3 mg/L): 29.4%
- inhibition at 3 µg/mL (Fusarium oxysporum; 3 mg/L): 36.1%
- inhibition at 30 µg/mL (Fusarium oxysporum; 30 mg/L): 43.7%
